This is an account of results in ChEMBL document CHEMBL5113455, “Discovery of benzyloxyphenyl- and phenethylphenyl-imidazole derivatives as a new class of ante-drug type boosters” (Bioorg Med Chem Lett, 2022).

Test system in the first data set: not listed separately
Put plainly: Drug metabolism in rat liver microsome assessed as metabolite 4-[(4-imidazol-1-ylphenoxy)methyl]benzoic acid formation at 10 uM and measured upto 30 mins by liquid chromatography-tandem mass spectrometry. It counts as ADME. Conditions: microsomes, 0.5 h. On the technique in general: Liver microsomes are a subcellular fraction often used to study metabolism.
As to `COC(=O)c1ccc(COc2ccc(-n3ccnc3)cc2)cc1`, the Drug metabolism result is listed as “Metabolite_Detected”.

The next data set relates to CYP3A4. Put plainly: in vitro. Conditions: rat, microsomes.
Broadly, the inhibition is the percentage by which the read-out fell short of the control. Low readings indicate a response near the control, high ones a response far below the control. As to `CC(=O)N1CCN(c2ccc(OCC3COC(Cn4ccnc4)(c4ccc(Cl)cc4Cl)O3)cc2)CC1` (centres undefined) [KETOCONAZOLE], the inhibition at 10 min, 10 µM amounted to 94.4%.

Still in this data set, the particulars now being: rat, rat liver microsomes, probe midazolam.
`Nn1nnc2ccccc21` came in with an inhibition at 10 min, 10 µM of 80.8%. Still for that read-out and setting: the same measure for `CCCOC(=O)c1ccc(COc2ccc(-n3ccnc3)cc2)cc1`: 42.6%; for `COC(=O)c1ccc(CCc2ccc(-n3ccnc3)cc2)cc1`: 82.8%.

Turning to `O=C(O)c1ccc(CCc2ccc(-n3ccnc3)cc2)cc1`, the inhibition at 10 min, 10 µM is 15.5%. In turn, `OCCOc1ccc(-n2ccnc2)cc1` showed an inhibition at 10 min, 10 µM of 6.7%. On the same count and under the same terms, the same measure for `CC(=O)OCCOc1ccc(-n2ccnc2)cc1`: 34.7%; for `O=C(OCC(F)(F)F)c1ccc(COc2ccc(-n3ccnc3)cc2)cc1`: 10.4%; for `CCCOC(=O)c1ccc(CCc2ccc(-n3ccnc3)cc2)cc1`: 90.4%. On the same count and under the same terms, the same measure for `COC(=O)c1ccc(COc2ccc(-n3ccnc3)cc2)cc1`: 72%; for `N#Cc1ccc(COc2ccc(-n3ccnc3)cc2)cc1`: 88.1%.

`O=C(O)c1ccc(COc2ccc(-n3ccnc3)cc2)cc1`: the inhibition at 10 min, 10 µM was 15.5%.

Compound `CCOC(=O)COc1ccc(-n2ccnc2)cc1` displayed an inhibition at 10 min, 10 µM of 12.7%. Same read-out and setting: the same measure for `CCC(C)COC(=O)c1ccc(COc2ccc(-n3ccnc3)cc2)cc1` (centres undefined): 58.4%; for `CCOC(=O)c1ccc(CCc2ccc(-n3ccnc3)cc2)cc1`: 74%; for `CC(=O)OCc1ccc(COc2ccc(-n3ccnc3)cc2)cc1`: 87.1%.

For the compound `CCCCCCOC(=O)c1ccc(COc2ccc(-n3ccnc3)cc2)cc1`, the inhibition at 10 min, 10 µM was 72.2%.

With `O=C(OCCc1ccccc1)c1ccc(COc2ccc(-n3ccnc3)cc2)cc1`, the inhibition at 10 min, 10 µM is 61.8%. Same read-out and setting: the same measure for `CCCCOC(=O)c1ccc(COc2ccc(-n3ccnc3)cc2)cc1`: 39.9%; for `O=C(Oc1ccc(-n2ccnc2)cc1)c1ccc(C(F)(F)F)cc1`: 15.6%; for `OCc1ccc(COc2ccc(-n3ccnc3)cc2)cc1`: 84.7%. In turn, `c1ccc(COc2ccc(-n3ccnc3)cc2)cc1` came in with an inhibition at 10 min, 10 µM of 82.5%. The compound `O=C(Oc1ccc(-n2ccnc2)cc1)c1ccc(Cl)cc1` registered an inhibition at 10 min, 10 µM of 16.5%.
